Experimental data reported in patent US9512180B2, “Compstatin analogs” (THE REGENTS OF THE UNIVERSITY OF CALIFORNIA, priority 2012, dated 2016).
“Also recorded” adds a separate entry of the source. Bridge positions count the residues as written; N and C are the ends. Peptide text beside a SMILES is read from it.

Assays:
[1] = test system: complement alternative pathway (AP); assay: C3b ELISA (inhibition of C3b formation); format: biochemical, human; details: table 13; read-out: C3b ELISA IC50
Description: (§1) Inhibition of the complement alternative pathway (AP) by compstatin family peptides was assayed by ELISA. Peptides were dissolved in phosphate buffered saline (PBS, 150 mM). Initial peptide concentrations were calculated using the Beer-Lambert Law with an extinction coefficient of 5,500 (1/M·cm) for Trp and 5,470 (1/M·cm) for methylated-Trp present in the sequence, at 280 nm. Nunc Maxisorp 96-well plates were coated with 1 μg lipopolysaccharides (LPS) from Salmonella enteriditis for ˜16 h at room temperature. Plates were washed three times with PBS/0.05% Tween-20 (PBS-T) between each step. Plates were blocked with 4% bovine serum albumin (BSA) in PBS-T for 1 h at 37° C. Serial peptide dilutions were performed in 96-well plates, using gelatin veronal-buffered saline with 5 mM MgCl2 and 10 mM EGTA (GVBS-MgEGTA). Normal human serum (Complement Technology Inc., Tyler, Tex., USA) was diluted in GVBS-MgEGTA and mixed with compstatin serial dilutions to a final concentration of 30%. Serum diluted in GVBS-MgEGTA and GVBS (containing 20 mM EDTA) were used as positive and negative controls for complement activation, respectively. Dilutions were preincubated for 15 minutes at room temperature, transferred to ELISA plates, and incubated for 1 h at 37° C. Generation of C3b and C5b-9 were assayed using horseradish peroxidase (HRP)-conjugated anti-C3 (MP Biomedicals, Solon, Ohio, USA) and anti-05b-9 aEll (Abcam, Cambridge, Mass., USA), respectively. Plates were washed and incubated with either anti-C3-HRP (1:5000 in 1% BSA/PBS-T) or anti-05b-9 (1:1000 in 1% BSA/PBS-T) for 1 h at 37° C. For C5b-9 detection, primary antibody incubation was followed by incubation with anti-mouse-HRP (BioRad, Hercules, Calif., USA) for 1 h at 37° C. (1:5000 in 1% BSA/PBS-T). Bound C3b and C5b-9 were quantified using a 3,3′,5,5′-tetramethylbenzidine substrate solution containing urea hydrogen peroxide in 0.11 M sodium acetate buffer, followed by a 1 N H2SO4 acid stop. Plates were measured spectrophotometrically at 450 nm. Percent inhibition of C3b and C5b-9 deposition was plotted against peptide concentration and the data was fitted to a logistic dose response curve with Prism software (GraphPad, San Diego, Calif., USA) to determine IC50 values.
(§2) In all assays, MgEGTA was used to chelate Ca′ ions required for classical/lectin pathway complement activation, while providing Mg′ necessary for AP activation. ELISAs allow for direct detection of C3b and C5b-9 formed during AP activation, while erythrocyte lysis assays provide a functional assessment of AP-mediated hemolysis in serum. […] Table 9 summarizes the IC50 values derived from the three different assays. […] The relative potencies of the peptides, based on the measured ICH values, are consistent across all three assays (Peptide III˜Peptide VI˜Peptide IX>Peptide I>Parent). Based on the assay conditions used in this study, peptides inhibited C5b-9 formation with moderately better efficacy than formation of C3b, while slightly higher concentrations were necessary to inhibit AP-mediated hemolysis.

[2] = test system: complement alternative pathway (AP); assay: C5b-9 ELISA (inhibition of C5b-9 terminal complex formation); format: biochemical, human; details: table 13; read-out: C5b-9 ELISA IC50
Description: as §1, §2

[3] = test system: complement alternative pathway (AP); assay: Hemolytic assay (rabbit erythrocyte lysis in human serum); format: cell-based; details: table 13; read-out: Lysis IC50
Description: Inhibition of complement was also measured via lysis of erythrocytes. Rabbit erythrocytes (Complement Technology Inc., Tyler, Tex., USA) were washed in PBS and resuspended in veronal-buffered saline with 5 mM MgCl2 and 10 mM EGTA (VBS-MgEGTA). Peptide and serum dilutions were prepared as described above, and 1×10^7 erythrocytes were added to each serum/peptide mixture. Erythrocytes diluted in sterile deionized water and in VBS-MgEGTA were used as positive and negative controls for lysis, respectively. Plates were incubated for 20 minutes at 37° C., and centrifuged at 2500×g for 10 minutes.
In all assays, MgEGTA was used to chelate Ca′ ions required for classical/lectin pathway complement activation, while providing Mg′ necessary for AP activation. ELISAs allow for direct detection of C3b and C5b-9 formed during AP activation, while erythrocyte lysis assays provide a functional assessment of AP-mediated hemolysis in serum.

complement system = assay: Preliminary ELISA-based complement system inhibition assays, human serum; format: biochemical; details: preliminary data
Excerpt: For some of the peptides studied here, W1, W13, R1, and S-1S0, there is experimental evidence for inhibitory activity against hC3. […] The structural rationale was that the positively charged backbone amino group was disrupting the hydrophobic cluster at the termini (spanning residues 11-C2-V3-V4/C12/T13 of native compstatin), which was deemed necessary for binding and activity before the availability of the structure of the C3c-W4A9 complex, and that upon removal of the positive charge by acetylation the hydrophobic cluster was fortified and contributed to the 3-fold increase in activity. […] The peptide with the diserine extension is expected to be active, as the diserine was present at the N-terminus of the original 32-amino acid peptide that was identified in the phage-display and a subsequent study.

hC3 = hC3 (Homo sapiens, UniProt P01024); assay: Activity measurements of inhibitory activity against hC3 (method not described); details: relative to W4A9
hC3, sequence (P01024 23-1663): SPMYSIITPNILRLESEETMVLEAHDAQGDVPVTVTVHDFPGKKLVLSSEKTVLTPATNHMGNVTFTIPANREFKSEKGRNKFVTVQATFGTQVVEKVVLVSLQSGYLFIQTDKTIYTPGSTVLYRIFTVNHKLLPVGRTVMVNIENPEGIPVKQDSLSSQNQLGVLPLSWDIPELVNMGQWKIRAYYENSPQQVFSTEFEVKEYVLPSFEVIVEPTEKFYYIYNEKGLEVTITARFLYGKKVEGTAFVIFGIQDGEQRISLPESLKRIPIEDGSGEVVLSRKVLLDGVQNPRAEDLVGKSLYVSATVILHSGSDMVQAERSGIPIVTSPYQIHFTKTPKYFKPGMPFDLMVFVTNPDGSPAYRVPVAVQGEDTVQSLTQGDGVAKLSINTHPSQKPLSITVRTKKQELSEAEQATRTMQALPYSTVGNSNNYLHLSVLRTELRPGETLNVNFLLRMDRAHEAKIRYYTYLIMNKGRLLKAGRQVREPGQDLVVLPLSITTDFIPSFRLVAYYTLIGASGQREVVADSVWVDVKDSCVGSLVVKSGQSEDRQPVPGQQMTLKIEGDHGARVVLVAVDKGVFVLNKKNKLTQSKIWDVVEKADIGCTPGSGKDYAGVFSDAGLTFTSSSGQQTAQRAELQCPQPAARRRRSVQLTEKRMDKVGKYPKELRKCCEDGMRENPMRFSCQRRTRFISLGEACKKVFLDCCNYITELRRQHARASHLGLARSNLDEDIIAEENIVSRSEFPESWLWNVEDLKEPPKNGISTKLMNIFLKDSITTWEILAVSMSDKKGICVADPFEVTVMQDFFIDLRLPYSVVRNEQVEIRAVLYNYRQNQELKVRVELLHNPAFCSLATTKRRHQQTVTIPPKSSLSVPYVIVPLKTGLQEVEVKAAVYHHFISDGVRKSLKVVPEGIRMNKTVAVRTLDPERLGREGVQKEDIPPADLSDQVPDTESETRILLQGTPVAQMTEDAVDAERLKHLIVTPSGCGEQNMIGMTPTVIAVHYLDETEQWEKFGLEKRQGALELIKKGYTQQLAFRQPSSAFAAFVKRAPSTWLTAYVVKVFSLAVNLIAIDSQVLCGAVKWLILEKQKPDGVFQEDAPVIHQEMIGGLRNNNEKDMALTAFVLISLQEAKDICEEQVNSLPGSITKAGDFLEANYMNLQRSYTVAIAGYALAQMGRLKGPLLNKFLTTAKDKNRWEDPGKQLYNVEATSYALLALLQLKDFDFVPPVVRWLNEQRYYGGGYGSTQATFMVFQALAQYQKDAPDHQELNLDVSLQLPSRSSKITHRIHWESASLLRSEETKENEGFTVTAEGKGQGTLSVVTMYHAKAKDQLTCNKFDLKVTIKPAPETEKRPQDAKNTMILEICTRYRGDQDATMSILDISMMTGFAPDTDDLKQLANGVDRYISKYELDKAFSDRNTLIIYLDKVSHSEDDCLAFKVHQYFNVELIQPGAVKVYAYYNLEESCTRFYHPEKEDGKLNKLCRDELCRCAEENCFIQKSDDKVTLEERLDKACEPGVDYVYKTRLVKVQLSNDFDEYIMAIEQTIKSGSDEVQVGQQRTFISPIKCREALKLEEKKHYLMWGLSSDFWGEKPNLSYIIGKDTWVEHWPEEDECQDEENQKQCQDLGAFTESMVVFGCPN

[4] = Experimental solubility of analogs (method not described); format: physicochemical; details: aqueous environment

Row | Compound | IC50 [1] [nM] | IC50 [2] [nM] | IC50 [3] [nM] | inhibitory activity in human serum (in words) (complement system) | inhibitory activity against hC3 (in words) (hC3) | solubility (in words) [4]
1 | CC[C@H](C)[C@H](NC(=O)[C@H](CCCNC(=N)N)NC(=O)[C@H](CCC(=O)O)NC(C)=O)C(=O)N[C@H]1CSSC[C@@H](C(=O)N[C@H](C(N)=O)[C@@H](C)O)NC(=O)[C@H](CCCNC(=N)N)NC(=O)[C@H](Cc2c[nH]cn2)NC(=O)[C@H](C)NC(=O)CNC(=O)[C@H](Cc2c[nH]c3ccccc23)NC(=O)[C@H](CC(=O)O)NC(=O)[C@H](CCC(N)=O)NC(=O)[C@H](Cc2c[nH]c3ccccc23)NC(=O)[C@H](C(C)C)NC1=O [Peptide 3.1, Ac-ER-ICV WQDWGA HRCT-NH2] | 900 ± 100 | 500 ± 100 | 900 ± 200 | – | – | –
2 | CC(=O)N[C@@H](CC(N)=O)C(=O)N[C@@H](CC(N)=O)C(=O)N[C@@H](CC(C)C)C(=O)N[C@H]1CSSC[C@@H](C(=O)N[C@H](C(N)=O)[C@@H](C)O)NC(=O)[C@H](CCCNC(=N)N)NC(=O)[C@H](Cc2c[nH]cn2)NC(=O)[C@H](C)NC(=O)CNC(=O)[C@H](Cc2c[nH]c3ccccc23)NC(=O)[C@H](CC(=O)O)NC(=O)[C@H](CCC(N)=O)NC(=O)[C@H](Cc2c[nH]c3ccccc23)NC(=O)[C@H](C(C)C)NC1=O [Peptide 3.2, Ac-NN-LCV WQDWGA HRCT-NH2] (Ac-NNLCVWQDWGAHRCT-NH2; disulfide 4-14) | 600 ± 100 | 500 ± 100 | 300 ± 100 | – | – | –
3 | CC(=O)N[C@@H](CC(N)=O)C(=O)N[C@@H](CCCNC(=N)N)C(=O)N[C@@H](CC(C)C)C(=O)N[C@H]1CSSC[C@@H](C(=O)N[C@H](C(N)=O)[C@@H](C)O)NC(=O)[C@H](CCCNC(=N)N)NC(=O)[C@H](Cc2c[nH]cn2)NC(=O)[C@H](C)NC(=O)CNC(=O)[C@H](Cc2c[nH]c3ccccc23)NC(=O)[C@H](CC(=O)O)NC(=O)[C@H](CCC(N)=O)NC(=O)[C@H](Cc2c[nH]c3ccccc23)NC(=O)[C@H](C(C)C)NC1=O [Peptide 3.3, Ac-NR-LCV WQDWGA HRCT-NH2] (Ac-NRLCVWQDWGAHRCT-NH2; disulfide 4-14) | 600 ± 100 | 500 ± 100 | 300 ± 100 | – | – | –
4 | CC[C@H](C)[C@H](NC(=O)[C@H](CO)NC(=O)[C@H](CCCNC(=N)N)NC(C)=O)C(=O)N[C@H]1CSSC[C@@H](C(=O)N[C@H](C(N)=O)[C@@H](C)O)NC(=O)[C@H](CCCNC(=N)N)NC(=O)[C@H](Cc2c[nH]cn2)NC(=O)[C@H](C)NC(=O)CNC(=O)[C@H](Cc2c[nH]c3ccccc23)NC(=O)[C@H](CC(=O)O)NC(=O)[C@H](CCC(N)=O)NC(=O)[C@H](Cc2c[nH]c3ccccc23)NC(=O)[C@H](C(C)C)NC1=O [Peptide 3.4, Ac-RS-ICV WQDWGA HRCT-NH2] | 700 ± 100 | 600 ± 100 | 300 ± 100 | – | – | –
5 | CC[C@H](C)[C@H](NC(=O)[C@H](CO)NC(=O)[C@H](CO)NC(C)=O)C(=O)N[C@H]1CSSC[C@@H](C(=O)N[C@H](C(N)=O)[C@@H](C)O)NC(=O)[C@H](CCCNC(=N)N)NC(=O)[C@H](Cc2c[nH]cn2)NC(=O)[C@H](C)NC(=O)CNC(=O)[C@H](Cc2c[nH]c3ccccc23)NC(=O)[C@H](CC(=O)O)NC(=O)[C@H](CCC(N)=O)NC(=O)[C@H](Cc2c[nH]c3ccccc23)NC(=O)[C@H](C(C)C)NC1=O [Peptide IV, Ac-SS-ICV WQDWGA HRCT-NH2] | – | – | – | higher than those of native compstatin and slightly lower than those of the W4A9 analog | – | –
6 | CC(=O)N[C@@H](Cc1c[nH]c2ccccc12)C(=O)N[C@H]1CSSC[C@@H](C(=O)N[C@@H](Cc2c[nH]c3ccccc23)C(N)=O)NC(=O)[C@H](CCCNC(=N)N)NC(=O)[C@H](Cc2c[nH]cn2)NC(=O)[C@H](C)NC(=O)CNC(=O)[C@H](Cc2c[nH]c3ccccc23)NC(=O)[C@H](CC(=O)O)NC(=O)[C@H](CCC(N)=O)NC(=O)[C@H](Cc2c[nH]c3ccccc23)NC(=O)[C@H](C(C)C)NC1=O [Peptide W1W13] (Ac-WCVWQDWGAHRCW-NH2; disulfide 2-12) | – | – | – | – | slightly reduced activities | slightly reduced activities and solubilities
7 | CC(=O)N[C@@H](Cc1c[nH]c2ccccc12)C(=O)N[C@H]1CSSC[C@@H](C(=O)N[C@H](C(N)=O)[C@@H](C)O)NC(=O)[C@H](CCCNC(=N)N)NC(=O)[C@H](Cc2c[nH]cn2)NC(=O)[C@H](C)NC(=O)CNC(=O)[C@H](Cc2c[nH]c3ccccc23)NC(=O)[C@H](CC(=O)O)NC(=O)[C@H](CCC(N)=O)NC(=O)[C@H](Cc2c[nH]c3ccccc23)NC(=O)[C@H](C(C)C)NC1=O [Peptide W1] (Ac-WCVWQDWGAHRCT-NH2; disulfide 2-12) | – | – | – | – | near-W4A9 inhibitory activity | good solubility
8 | CC[C@H](C)[C@H](NC(C)=O)C(=O)N[C@H]1CSSC[C@@H](C(=O)N[C@@H](Cc2c[nH]c3ccccc23)C(N)=O)NC(=O)[C@H](CCCNC(=N)N)NC(=O)[C@H](Cc2c[nH]cn2)NC(=O)[C@H](C)NC(=O)CNC(=O)[C@H](Cc2c[nH]c3ccccc23)NC(=O)[C@H](CC(=O)O)NC(=O)[C@H](CCC(N)=O)NC(=O)[C@H](Cc2c[nH]c3ccccc23)NC(=O)[C@H](C(C)C)NC1=O [Peptide W13] (Ac-ICVWQDWGAHRCW-NH2; disulfide 2-12) | – | – | – | – | slightly reduced activities | slightly reduced activities and solubilities; also recorded: solubility problems in aqueous environment
